Where two headings read alike, the source gives them in different places.
Legend:
HeLa cells = assay: HeLa Cytotoxicity Assay (Cell Titer Glo viability); format: cell-based
Experimental: HeLa Cytotoxicity Assay Protocol: Day 0: HeLa cells (ATCC, HeLa CCL-2) are grown to 95% confluence in DMEM, 10% FBS/Pen/Strep/L-Glutamine. Day 1: Plate cells (1000 per well) in 40 μl culturing media using Corning 384-well plates (3570), incubate in standard TC conditions (5% CO2, 95% humidity, 37 degrees C.) for 24 hours. Day 2: Dilute each concentration of a half-log serial dilution of compound (1 mM-100 nM) 1:200 in culturing media and add 10 μl (50 μl total volume) of that dilution to designated wells (8 replicates per concentration). The final dilution will be 1000×(1 μM-100 pM). Day 4: Remove plate from incubator to cool for 20 minutes to room temperature. Add 40 μl of a 25% Promega Cell Titer Glo solution (diluted 1:3 with room temperature PBS) with Thermo combi or multichannel and incubate for 10 minutes. Read on Perkin-Elmer EnVision with US LUM settings for 0.1 second per well.
(§1) Compounds as shown were tested against various cells lines in vitro according to the methods described herein. Cells are plated in 384-well format in a total volume of 40 μl. Indicated compound concentrations were added 24 hrs after plating the cells. After 48 hrs cell viability was determined using Cell Titer Glo® Luminescent Cell Viability Assay.
(§2) Known PDE3 inhibitors as shown below were tested against various cells lines in vitro according to the methods described herein. Cells are plated in 384-well format in a total volume of 40 μl. Indicated compound concentrations were added 24 hrs after plating the cells. After 48 hrs cell viability was determined using Cell Titer Glo® Luminescent Cell Viability Assay.

A549 cells = assay: A549 Cytotoxicity Assay (Cell Titer Glo viability); format: cell-based
Experimental: A549 Cytotoxicity Assay Protocol. Day 0: A549 cells (ATCC, A549 CCL-185) are grown to 95% confluence in RPMI, 10% FBS/Pen/Strep/L-Glutamine. Day 1: Plate cells (1000 per well) in 40 μl culturing media using Corning 384-well plates (3570), incubate in standard TC conditions (5% CO2, 95% humidity, 37° C.) for 24 h. Day 2: Dilute each concentration of a half-log serial dilution of compound (1 mM-100 nM) 1:200 in culturing media and add […] (50 μl total volume) of that dilution to designated wells (8 replicates per concentration). The final dilution will be 1000×([…]). Day 4: Remove plate from incubator to cool for 20 minutes to room temperature. Add 40 μl of a 25% Promega Cell Titer Glo solution (diluted 1:3 with room temperature PBS) with Thermo combi or multichannel and incubate for 10 min. Read on Perkin-Elmer EnVision with US LUM settings for 0.1 second per well.
A549 Assay Protocol. Day 0: A549 cells (ATCC) are grown in a Triple flask (NUNC) to ˜95% confluence (TrypLE Phenol Red free) and resuspended for dispensing at 25,000 cells/mL of DMEM, 10% FBS/Pen/Strep/L-Glutamine (using the TAP Compact SelecT automated cell culture system). Day 1: Plate cells at 1000 per well in 40 uL media (DMEM/10% FBS/Pen/Strep/L-Glutamine) using Corning 8867BC 384 well plates; incubate in standard TC conditions (5% CO2; 95% humidity, 37° C.) for 24 hours (Compact SelecT). Day 2: Add 100 nL compound per well at dose into 40 uL assay volume using a pin tool (CyBi Well). Pin 100 nL cytotoxic compounds, mitoxantrone (CID 4212) to positive control wells to a final concentration of 10 μM (100 nL 4 mM DMSO stock). Incubate for […] at 37° C. in Liconic incubator, 95% humidity 5% CO2. Day 4: Remove plate from incubator, cool for 15 minutes to room temperature; add 20 μL 50% Promega CellTiterGlo (diluted 1:1 with PBS, pH 7.4) with Thermo Combi. Incubate at room temperature for 5 minutes. Read plates on Perkin-Elmer EnVision with standard luminescence settings for 0.1 sec per well.
as §1, §2

[1] = Homo sapiens, HeLa, 48 h, Cell Titer Glo, read-out: EC50 HeLa
[2] = Homo sapiens, A549, 48 hrs, Cell Titer Glo, read-out: EC50 A549
[3] = Homo sapiens, HeLa, Mean ± SD (n = 3), read-out: Potency (EC50 nM) HeLa
[4] = Homo sapiens, A549, Mean ± SD (n = 3), read-out: Potency (EC50 nM) A549
[5] = Homo sapiens, HeLa, n = 2, read-out: Potency (EC50) HeLa
[6] = Homo sapiens, A549, n = 2, read-out: Potency (EC50) A549
[7] = 48 hrs, Cell Titer Glo, read-out: EC50 HeLa

Structure (SMILES)	EC50 (HeLa cells; [3]) [nM]	EC50 (A549 cells; [4]) [nM]	other results
C[C@@H]1CC(=O)NN=C1c1ccc(N)c(Br)c1			EC50 (HeLa cells; [1]): > 10000 nM; EC50 (A549 cells; [2]): > 10000 nM
CCN(CC)c1ccc(C2=NNC(=O)CC2C)cc1 (stereo not drawn)	8.8 ± 2.3	> 10000	
CCN(CC)c1ccc(C2=NNC(=O)C[C@H]2C)cc1	3.8 ± 0.8	> 10000	
CCNc1ccc(C2=NNC(=O)C[C@H]2C)cc1	71 ± 7	> 10000	
CCN(CC)c1ccc(C2=NNC(=O)CC2C)cc1N (stereo not drawn)	240 ± 60	> 10000	
CCN(CC)c1ccc(C2=NNC(=O)CC2C)cc1NC(C)=O (stereo not drawn)	> 1000	> 10000	
CC1CC(=O)NN=C1c1ccc(N2CCOCC2)cc1 (stereo not drawn)	36 ± 9	> 10000	
CC1CC(=O)NN=C1c1ccc(N2CCOCC2)c(F)c1 (stereo not drawn)	2.8 ± 0.7	> 10000	
C[C@H]1CC(=O)NN=C1c1ccc(N2CCOCC2)c(F)c1	> 1000	> 10000	
CC(=O)N1CCN(c2ccc(C3=NNC(=O)C[C@H]3C)cc2F)CC1	> 1000	> 10000	
C[C@@H]1CC(=O)NN=C1c1ccc(N2CCN(C)CC2)cc1	310 ± 120	> 10000	
C[C@@H]1CC(=O)NN=C1c1ccc(N2CCCCC2)cc1	3.9 ± 0.6	> 10000	
C[C@@H]1CC(=O)NN=C1c1ccc(-n2cnnc2)cc1	> 1000	> 10000	
Cc1nc2ccc(C3=NNC(=O)C[C@H]3C)cc2[nH]1	> 1000	> 10000	
CC(=O)Nc1ccc(C2=NNC(=O)C[C@H]2C)cc1Cl	30	> 10000	
CC(=O)Nc1ccc(C2=NNC(=O)C[C@H]2C)cc1F	> 1000	> 10000	
C#Cc1cc(C2=NNC(=O)C[C@H]2C)ccc1NC(C)=O	65 ± 10	> 10000	
CC(=O)Nc1ccc(C2=NNC(=O)C[C@H]2C)cc1C(C)=O	130 ± 10	> 10000	
CC(=O)Nc1ccc(C2=NNC(=O)C[C@H]2C)cc1N	> 1000	> 10000	
C[C@@H]1CC(=O)NN=C1c1ccc(N2CCCOC2=O)cc1	> 1000	> 10000	
C[C@@H]1CC(=O)NN=C1c1ccc(N2CCCCS2(=O)=O)cc1	330 ± 6	> 10000	
C[C@@H]1CC(=O)NN=C1c1ccccc1	430 ± 50	> 10000	
CC1CC(=O)NN=C1c1ccc(F)cc1 (stereo not drawn)	410 ± 270	> 10000	
C[C@@H]1CC(=O)NN=C1c1ccc(Cl)cc1	33 ± 5	> 10000	
CC1CC(=O)NN=C1c1ccc(F)c(F)c1 (stereo not drawn)	64 ± 3	> 10000	
C[C@H]1CC(=O)NN=C1c1ccc(F)c(F)c1	> 1000	> 10000	
C[C@@H]1CC(=O)NN=C1c1ccc(I)cc1	7.1 ± 0.8	> 10000	

Structure (SMILES)	EC50 (HeLa cells; [3]) [nM]	EC50 (A549 cells; [4]) [nM]	other results
C/C=C/c1ccc(C2=NNC(=O)C[C@H]2C)cc1	8.8 ± 1.1	> 10000	
CCCc1ccc(C2=NNC(=O)C[C@H]2C)cc1	16 ± 1	> 10000	
CC1CC(=O)NN=C1c1ccc(C2=CCCCC2)cc1 (stereo not drawn)	2.2 ± 0.4	> 10000	
CC(=O)Nc1ccc(-c2n[nH]c(=O)cc2C)cc1	> 1000	> 10000	
CC1(C)C(=O)NN=C1c1ccc(N)cc1	> 1000	> 10000	
CCN(CC)c1ccc(C2=NNC(=O)C2(C)C)cc1	> 1000	> 10000	
CC1(C)C(=O)NN=C1c1ccc(N2CCOCC2)cc1	> 1000	> 10000	
CC1(C)C(=O)NN=C1c1ccc(Cl)cc1	> 1000	> 10000	
O=C1CC2CCc3cc(N4CCOCC4)ccc3C2=NN1 (stereo not drawn)	> 1000	> 10000	
CCN(CC)c1ccc(-c2nc(C(C)C)no2)cc1[N+](=O)[O-]			EC50 (HeLa cells; [5]): > 10000 nM; EC50 (A549 cells; [6]): > 10000 nM
CC1CC(=O)N(c2ccccc2)N=C1c1ccc(Cl)cc1 (stereo not drawn)			EC50 (HeLa cells; [5]): > 10000 nM; EC50 (A549 cells; [6]): > 10000 nM
CC1CC(=O)NN=C1c1cccs1 (stereo not drawn)			EC50 (HeLa cells; [5]): > 10000 nM; EC50 (A549 cells; [6]): > 10000 nM
O=C1CC(c2ccccc2)=NN1			EC50 (HeLa cells; [5]): > 10000 nM; EC50 (A549 cells; [6]): > 10000 nM
CCN(CC)c1ccc(C(=O)Nc2ccccc2)cc1[N+](=O)[O-]			EC50 (HeLa cells; [5]): > 10000 nM; EC50 (A549 cells; [6]): > 10000 nM
Cc1ccc(CCC(=O)N2CCN(c3ccc(C4=NNC(=O)CC4C)cc3)CC2)cc1 (stereo not drawn)			EC50 (HeLa cells; [5]): > 10000 nM; EC50 (A549 cells; [6]): > 10000 nM
CC1CC(=O)NN=C1c1ccc(N2CCN(C(=O)Cc3ccc(Cl)cc3Cl)CC2)cc1 (stereo not drawn)			EC50 (HeLa cells; [5]): > 10000 nM; EC50 (A549 cells; [6]): > 10000 nM
CC(=O)Nc1ccc(C2=NNC(=O)CC2C)cc1 (stereo not drawn) [drawing 139]			EC50 (HeLa cells; [7]): > 10000 nM; EC50 (A549 cells; 48 hrs, Cell Titer Glo, read-out: EC50 A549): > 10000 nM
CC(=O)Nc1ccc(C2=NNC(=O)C[C@H]2C)cc1[N+](=O)[O-] [drawing 143]			EC50 (HeLa cells; [1]): 0.00608 nM; EC50 (A549 cells; [2]): > 10000 nM
CC(=O)Nc1ccc(C2=NNC(=O)C[C@H]2C)cc1 [drawing 144]			EC50 (HeLa cells; [1]): > 10000 nM; EC50 (A549 cells; [2]): > 10000 nM
CC(=O)Nc1ccc(C2=NNC(=O)C[C@H]2C)cc1Br [drawing 146]			EC50 (HeLa cells; [1]): 42.1 nM; EC50 (A549 cells; [2]): > 10000 nM
CC(=O)Nc1ccc(C2=NNC(=O)CC2C)cc1 (stereo not drawn) [drawing 148]			EC50 (HeLa cells; [7]): > 1000 nM; EC50 (A549 cells; [2]): > 10000 nM
Cc1cc(=O)[nH]nc1-c1ccc(N)cc1 [drawing 149]			EC50 (HeLa cells; [1]): > 1000 nM; EC50 (A549 cells; [2]): > 10000 nM
CCN(CC)c1ccc(-c2n[nH]c(=O)cc2C)cc1 [drawing 150]			EC50 (HeLa cells; [1]): > 1000 nM; EC50 (A549 cells; [2]): > 10000 nM
CCN(CC)c1ccc(C2=NNC(=O)CC2C)cc1[N+](=O)[O-] (stereo not drawn) [drawing 154]		> 10000	
CCN(CC)c1ccc(C2=NNC(=O)C[C@H]2C)cc1[N+](=O)[O-] [drawing 155]	3.8 ± 1.1	> 10000	
CCNc1ccc(C2=NNC(=O)C[C@H]2C)cc1[N+](=O)[O-] [drawing 156]	1.1 ± 0.5	> 10000	
